Assay results: BindingDB's records for doi:10.1021/jm030061i (University of Connecticut, 2003)

Columns and labels:
[1] = biological target: hypoxanthine phosphoribosyltransferase (Trypanosoma cruzi); assay: Kinetic inhibition constant of compound with Trypanosoma cruzi Hypoxanthine Phosphoribosyltransferase (HPRT)
[2] = biological target: hypoxanthine phosphoribosyltransferase (Salmonella typhimurium); assay: Kinetic inhibition constant of compound with bacterial Hypoxanthine Phosphoribosyltransferase (HPRT)

Structure (SMILES) | Ki [1] [µM] | Ki [2] [µM]
O=C(Nc1cc2c3ccccc3ccc2c2ccccc12)C(Cl)Cl [2,2-Dichloro-N-chrysen-6-yl-acetamide] | 0.5 | > 25
Fc1cc2c3ccccc3ccc2c2ccccc12 [6-Fluoro-chrysene] | 2.8 | –
O=[N+]([O-])c1cc2c3ccccc3ccc2c2ccccc12 [6-Nitro-chrysene] | 6.7 | –
Nc1cc2c3ccccc3ccc2c2ccccc12 [Chrysen-6-ylamine] | 0.6 | –
